Test results published in ChEMBL document CHEMBL5291721, “A preclinical secondary pharmacology resource illuminates target-adverse drug reaction associations of marketed drugs” (Nat Commun, 2023).

What was measured:
[1] = molecular target: 5-hydroxytryptamine receptor 2B (Homo sapiens, UniProt P41595); format: functional, cell-based
[2] = molecular target: T1, Amine oxidase [flavin-containing] A (Homo sapiens, UniProt P21397); format: functional
T1 sequence (P21397 whole entry): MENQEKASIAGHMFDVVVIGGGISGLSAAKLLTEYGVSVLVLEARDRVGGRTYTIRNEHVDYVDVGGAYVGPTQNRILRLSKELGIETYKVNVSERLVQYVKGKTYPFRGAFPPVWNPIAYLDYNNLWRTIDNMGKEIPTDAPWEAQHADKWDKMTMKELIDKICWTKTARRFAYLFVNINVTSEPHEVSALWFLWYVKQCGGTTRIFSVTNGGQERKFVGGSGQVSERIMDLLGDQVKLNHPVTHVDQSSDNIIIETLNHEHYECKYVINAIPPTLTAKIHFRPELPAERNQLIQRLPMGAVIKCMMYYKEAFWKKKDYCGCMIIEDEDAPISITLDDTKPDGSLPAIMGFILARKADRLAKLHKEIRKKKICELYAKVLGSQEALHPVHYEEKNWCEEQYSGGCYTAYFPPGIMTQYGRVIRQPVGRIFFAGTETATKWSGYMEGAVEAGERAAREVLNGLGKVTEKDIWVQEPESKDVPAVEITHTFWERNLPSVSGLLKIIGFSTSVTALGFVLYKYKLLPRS

[3] = molecular target: T2, 5-hydroxytryptamine receptor 1A (Homo sapiens, UniProt P08908)
T2 sequence (P08908 whole entry): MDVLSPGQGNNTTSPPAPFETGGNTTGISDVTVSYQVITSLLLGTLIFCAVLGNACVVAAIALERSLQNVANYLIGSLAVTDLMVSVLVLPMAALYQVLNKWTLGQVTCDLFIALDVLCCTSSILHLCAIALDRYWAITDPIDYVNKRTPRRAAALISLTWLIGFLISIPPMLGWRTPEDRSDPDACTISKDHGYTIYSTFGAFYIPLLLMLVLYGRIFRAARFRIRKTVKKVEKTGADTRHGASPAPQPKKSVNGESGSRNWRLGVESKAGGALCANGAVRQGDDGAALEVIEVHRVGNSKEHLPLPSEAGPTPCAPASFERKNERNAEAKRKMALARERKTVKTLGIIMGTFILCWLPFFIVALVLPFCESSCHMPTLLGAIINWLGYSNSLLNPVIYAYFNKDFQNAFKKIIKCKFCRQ

[4] = molecular target: T3, Prostaglandin G/H synthase 1 (Homo sapiens, UniProt P23219); format: functional
[5] = molecular target: T4, Alpha-1A adrenergic receptor (Homo sapiens, UniProt P35348); format: functional, cell-based
T4 sequence (P35348 whole entry): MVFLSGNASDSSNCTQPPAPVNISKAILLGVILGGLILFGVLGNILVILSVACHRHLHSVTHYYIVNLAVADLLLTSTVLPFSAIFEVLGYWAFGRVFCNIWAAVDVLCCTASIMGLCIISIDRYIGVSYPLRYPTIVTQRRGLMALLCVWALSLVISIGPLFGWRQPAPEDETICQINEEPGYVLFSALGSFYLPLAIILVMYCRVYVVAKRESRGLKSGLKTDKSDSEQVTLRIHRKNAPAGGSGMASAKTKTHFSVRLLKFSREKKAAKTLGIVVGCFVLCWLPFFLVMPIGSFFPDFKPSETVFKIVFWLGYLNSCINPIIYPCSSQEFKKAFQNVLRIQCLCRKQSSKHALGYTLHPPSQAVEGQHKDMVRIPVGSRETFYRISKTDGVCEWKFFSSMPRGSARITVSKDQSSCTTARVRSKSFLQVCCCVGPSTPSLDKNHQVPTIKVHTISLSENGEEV

[6] = molecular target: T3, Prostaglandin G/H synthase 1; format: functional; remark: listed apart in the source
[7] = molecular target: 3',5'-cyclic-AMP phosphodiesterase 4A (Homo sapiens, UniProt P27815); format: functional
[8] = molecular target: Sodium-dependent noradrenaline transporter (Homo sapiens, UniProt P23975)
Prothrombin = Prothrombin (Homo sapiens, UniProt P00734); format: functional
D(1A) dopamine receptor = D(1A) dopamine receptor (Homo sapiens, UniProt P21728)
D(3) dopamine receptor = D(3) dopamine receptor (Homo sapiens, UniProt P35462)
[9] = molecular target: cGMP-inhibited 3',5'-cyclic phosphodiesterase 3A (Homo sapiens, UniProt Q14432); format: functional
[10] = molecular target: T5, Alpha-2A adrenergic receptor (Homo sapiens, UniProt P08913)
T5 sequence (P08913 whole entry): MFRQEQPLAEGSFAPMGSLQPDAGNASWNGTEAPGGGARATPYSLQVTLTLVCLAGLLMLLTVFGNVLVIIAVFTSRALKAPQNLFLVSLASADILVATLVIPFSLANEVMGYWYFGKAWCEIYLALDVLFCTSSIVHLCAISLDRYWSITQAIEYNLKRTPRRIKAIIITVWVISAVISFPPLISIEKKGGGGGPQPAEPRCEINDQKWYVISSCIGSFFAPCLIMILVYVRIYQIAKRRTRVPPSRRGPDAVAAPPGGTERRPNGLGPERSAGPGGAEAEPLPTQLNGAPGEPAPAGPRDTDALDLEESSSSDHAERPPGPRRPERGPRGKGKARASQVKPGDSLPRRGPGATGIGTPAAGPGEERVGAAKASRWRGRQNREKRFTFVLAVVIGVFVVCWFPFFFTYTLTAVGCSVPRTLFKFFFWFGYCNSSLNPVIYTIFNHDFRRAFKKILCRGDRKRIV

Thromboxane A2 receptor = molecular target: T6, Thromboxane A2 receptor (Homo sapiens, UniProt P21731); format: functional, cell-based
T6 sequence (P21731 whole entry): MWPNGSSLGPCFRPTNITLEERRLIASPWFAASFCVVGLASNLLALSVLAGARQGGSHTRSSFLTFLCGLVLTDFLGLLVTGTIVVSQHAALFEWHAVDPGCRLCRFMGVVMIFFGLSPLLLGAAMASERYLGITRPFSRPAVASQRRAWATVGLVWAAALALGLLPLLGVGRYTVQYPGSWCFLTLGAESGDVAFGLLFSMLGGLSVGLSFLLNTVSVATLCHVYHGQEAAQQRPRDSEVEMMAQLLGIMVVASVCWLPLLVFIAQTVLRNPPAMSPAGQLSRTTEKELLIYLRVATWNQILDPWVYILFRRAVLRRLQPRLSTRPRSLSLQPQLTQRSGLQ

[11] = molecular target: Voltage-gated inwardly rectifying potassium channel KCNH2 (Homo sapiens, UniProt Q12809); format: functional
Acetylcholinesterase = Acetylcholinesterase (Homo sapiens, UniProt P22303); format: functional
Also: assay procedure not described here.

T3 sequence (P23219 whole entry): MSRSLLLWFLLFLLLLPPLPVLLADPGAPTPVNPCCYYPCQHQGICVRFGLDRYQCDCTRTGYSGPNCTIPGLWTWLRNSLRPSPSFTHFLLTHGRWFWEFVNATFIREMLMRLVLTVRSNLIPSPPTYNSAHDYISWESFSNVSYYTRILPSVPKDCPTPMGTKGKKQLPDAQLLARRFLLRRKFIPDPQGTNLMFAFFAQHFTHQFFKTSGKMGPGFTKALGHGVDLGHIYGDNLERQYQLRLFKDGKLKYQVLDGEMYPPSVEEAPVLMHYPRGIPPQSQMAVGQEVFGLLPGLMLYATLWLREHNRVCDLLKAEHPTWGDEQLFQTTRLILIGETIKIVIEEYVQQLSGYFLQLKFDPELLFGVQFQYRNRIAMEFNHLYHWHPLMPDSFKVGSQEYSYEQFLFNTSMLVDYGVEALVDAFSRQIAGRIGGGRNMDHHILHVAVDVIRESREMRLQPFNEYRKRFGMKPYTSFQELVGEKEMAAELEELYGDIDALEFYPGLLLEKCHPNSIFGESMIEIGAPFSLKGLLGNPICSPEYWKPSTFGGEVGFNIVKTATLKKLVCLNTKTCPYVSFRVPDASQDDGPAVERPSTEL
Sodium-dependent noradrenaline transporter, sequence (P23975 whole entry): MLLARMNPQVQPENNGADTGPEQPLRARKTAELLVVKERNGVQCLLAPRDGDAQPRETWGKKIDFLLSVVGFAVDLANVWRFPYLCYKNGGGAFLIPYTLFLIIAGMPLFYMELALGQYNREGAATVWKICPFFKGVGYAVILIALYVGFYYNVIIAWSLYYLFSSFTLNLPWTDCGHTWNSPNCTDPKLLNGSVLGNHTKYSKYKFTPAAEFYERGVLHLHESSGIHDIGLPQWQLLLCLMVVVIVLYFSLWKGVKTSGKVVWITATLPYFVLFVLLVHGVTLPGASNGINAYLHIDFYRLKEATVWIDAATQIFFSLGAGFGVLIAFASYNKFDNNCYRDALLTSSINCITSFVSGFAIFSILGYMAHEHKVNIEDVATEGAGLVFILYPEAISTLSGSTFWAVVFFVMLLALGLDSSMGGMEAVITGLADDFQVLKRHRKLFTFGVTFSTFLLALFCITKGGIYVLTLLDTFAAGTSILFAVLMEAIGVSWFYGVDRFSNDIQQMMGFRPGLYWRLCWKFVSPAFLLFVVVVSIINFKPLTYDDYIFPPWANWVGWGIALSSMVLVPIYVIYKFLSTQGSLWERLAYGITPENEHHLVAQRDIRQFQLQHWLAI
D(1A) dopamine receptor, sequence (P21728 whole entry): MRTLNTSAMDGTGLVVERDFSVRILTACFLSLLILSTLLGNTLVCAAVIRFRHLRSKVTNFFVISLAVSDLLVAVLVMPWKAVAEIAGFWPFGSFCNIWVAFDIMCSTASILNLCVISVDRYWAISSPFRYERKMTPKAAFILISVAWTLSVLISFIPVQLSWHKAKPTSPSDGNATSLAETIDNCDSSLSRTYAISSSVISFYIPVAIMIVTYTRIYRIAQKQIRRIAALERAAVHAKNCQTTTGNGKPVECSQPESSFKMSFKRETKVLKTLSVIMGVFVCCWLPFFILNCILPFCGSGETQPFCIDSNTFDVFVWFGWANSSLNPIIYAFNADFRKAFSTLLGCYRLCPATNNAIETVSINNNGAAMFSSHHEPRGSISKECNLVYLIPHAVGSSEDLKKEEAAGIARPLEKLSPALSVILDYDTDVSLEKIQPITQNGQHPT
Acetylcholinesterase, sequence (P22303 whole entry): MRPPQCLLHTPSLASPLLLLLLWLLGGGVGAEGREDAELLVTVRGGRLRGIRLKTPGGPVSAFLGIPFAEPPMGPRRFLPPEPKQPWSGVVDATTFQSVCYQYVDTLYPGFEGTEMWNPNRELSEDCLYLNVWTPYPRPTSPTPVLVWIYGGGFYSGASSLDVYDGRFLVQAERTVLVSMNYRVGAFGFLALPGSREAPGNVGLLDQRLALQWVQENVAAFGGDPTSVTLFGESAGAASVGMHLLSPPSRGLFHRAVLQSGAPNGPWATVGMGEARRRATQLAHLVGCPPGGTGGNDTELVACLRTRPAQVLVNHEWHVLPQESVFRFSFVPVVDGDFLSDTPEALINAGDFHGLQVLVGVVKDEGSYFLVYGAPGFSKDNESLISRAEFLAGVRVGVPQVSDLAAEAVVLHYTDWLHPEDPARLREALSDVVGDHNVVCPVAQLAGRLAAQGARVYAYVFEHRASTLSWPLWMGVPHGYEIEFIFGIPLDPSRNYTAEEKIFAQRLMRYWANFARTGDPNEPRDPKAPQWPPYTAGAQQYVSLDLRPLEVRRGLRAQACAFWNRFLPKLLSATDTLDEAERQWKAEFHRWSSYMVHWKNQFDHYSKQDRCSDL
cGMP-inhibited 3',5'-cyclic phosphodiesterase 3A, sequence (Q14432 whole entry): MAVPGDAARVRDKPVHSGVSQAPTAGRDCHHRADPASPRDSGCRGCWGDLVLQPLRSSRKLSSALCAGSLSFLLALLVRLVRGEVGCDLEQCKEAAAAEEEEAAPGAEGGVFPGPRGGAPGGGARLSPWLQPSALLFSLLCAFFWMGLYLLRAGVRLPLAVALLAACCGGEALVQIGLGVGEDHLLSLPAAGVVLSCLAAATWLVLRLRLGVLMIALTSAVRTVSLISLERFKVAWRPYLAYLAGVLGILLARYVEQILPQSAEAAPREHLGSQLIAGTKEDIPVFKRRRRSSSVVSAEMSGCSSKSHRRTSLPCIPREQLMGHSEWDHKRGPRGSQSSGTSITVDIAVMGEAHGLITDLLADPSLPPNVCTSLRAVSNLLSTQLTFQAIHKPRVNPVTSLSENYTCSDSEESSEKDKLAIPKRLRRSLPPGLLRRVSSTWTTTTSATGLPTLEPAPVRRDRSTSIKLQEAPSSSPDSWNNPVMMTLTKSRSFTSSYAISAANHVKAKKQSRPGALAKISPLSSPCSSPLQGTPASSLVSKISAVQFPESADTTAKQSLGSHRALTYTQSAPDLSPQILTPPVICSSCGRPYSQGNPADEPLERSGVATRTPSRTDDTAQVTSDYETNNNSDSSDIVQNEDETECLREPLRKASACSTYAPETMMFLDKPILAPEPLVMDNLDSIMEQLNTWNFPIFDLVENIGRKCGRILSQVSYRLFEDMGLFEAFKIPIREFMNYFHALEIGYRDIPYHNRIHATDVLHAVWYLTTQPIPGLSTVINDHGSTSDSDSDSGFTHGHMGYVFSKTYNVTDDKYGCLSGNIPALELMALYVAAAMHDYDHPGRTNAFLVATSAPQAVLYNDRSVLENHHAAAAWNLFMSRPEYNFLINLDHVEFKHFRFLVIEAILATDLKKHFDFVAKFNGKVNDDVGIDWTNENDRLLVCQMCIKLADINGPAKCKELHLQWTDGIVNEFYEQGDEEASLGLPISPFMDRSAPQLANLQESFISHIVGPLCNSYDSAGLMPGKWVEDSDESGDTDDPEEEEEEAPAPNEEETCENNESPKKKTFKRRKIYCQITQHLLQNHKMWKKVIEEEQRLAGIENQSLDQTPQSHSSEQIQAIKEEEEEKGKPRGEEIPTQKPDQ
3',5'-cyclic-AMP phosphodiesterase 4A, sequence (P27815 whole entry): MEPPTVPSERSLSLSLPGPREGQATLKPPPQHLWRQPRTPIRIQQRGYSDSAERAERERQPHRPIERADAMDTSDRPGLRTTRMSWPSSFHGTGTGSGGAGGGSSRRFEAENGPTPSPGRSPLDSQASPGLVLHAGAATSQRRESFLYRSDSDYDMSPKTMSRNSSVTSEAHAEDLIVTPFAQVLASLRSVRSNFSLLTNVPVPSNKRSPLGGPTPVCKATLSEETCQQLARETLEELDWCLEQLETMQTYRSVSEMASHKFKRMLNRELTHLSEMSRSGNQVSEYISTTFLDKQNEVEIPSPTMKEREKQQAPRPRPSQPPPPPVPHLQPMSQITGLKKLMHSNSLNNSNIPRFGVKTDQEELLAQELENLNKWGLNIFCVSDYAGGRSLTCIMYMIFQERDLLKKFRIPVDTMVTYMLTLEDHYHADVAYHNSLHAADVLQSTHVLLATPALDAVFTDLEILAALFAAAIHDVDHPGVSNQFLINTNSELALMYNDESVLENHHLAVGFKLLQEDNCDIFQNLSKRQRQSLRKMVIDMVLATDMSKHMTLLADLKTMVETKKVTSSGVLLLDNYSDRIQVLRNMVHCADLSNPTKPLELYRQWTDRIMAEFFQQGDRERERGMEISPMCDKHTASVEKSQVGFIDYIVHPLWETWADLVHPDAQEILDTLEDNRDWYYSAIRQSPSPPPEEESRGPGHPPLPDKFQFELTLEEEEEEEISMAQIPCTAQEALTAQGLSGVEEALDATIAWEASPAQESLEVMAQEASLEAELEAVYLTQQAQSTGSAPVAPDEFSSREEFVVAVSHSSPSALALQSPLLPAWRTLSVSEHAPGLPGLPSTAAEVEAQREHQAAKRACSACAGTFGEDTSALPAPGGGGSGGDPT
5-hydroxytryptamine receptor 2B, sequence (P41595 whole entry): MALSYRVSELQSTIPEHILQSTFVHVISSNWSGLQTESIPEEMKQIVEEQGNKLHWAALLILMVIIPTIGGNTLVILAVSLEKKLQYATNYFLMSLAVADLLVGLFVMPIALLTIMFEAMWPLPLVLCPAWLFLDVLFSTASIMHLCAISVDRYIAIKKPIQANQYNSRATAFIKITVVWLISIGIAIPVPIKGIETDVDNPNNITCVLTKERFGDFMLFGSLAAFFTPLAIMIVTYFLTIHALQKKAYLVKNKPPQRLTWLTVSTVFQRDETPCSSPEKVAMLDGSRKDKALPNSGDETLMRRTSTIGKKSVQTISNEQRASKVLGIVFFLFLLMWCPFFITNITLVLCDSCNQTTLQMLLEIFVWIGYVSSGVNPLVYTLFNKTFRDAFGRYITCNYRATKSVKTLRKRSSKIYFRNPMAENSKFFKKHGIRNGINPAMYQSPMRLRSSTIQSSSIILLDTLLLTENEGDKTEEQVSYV

| SMILES | AC50 [1] [µM] | AC50 [2] [µM] | AC50 [3] [µM] | AC50 [4] [µM] | AC50 [5] [µM] | AC50 [6] [µM] | AC50 [7] [µM] | AC50 [8] [µM] | AC50 (Prothrombin) [µM] | AC50 (D(1A) dopamine receptor) [µM] | AC50 (D(3) dopamine receptor) [µM] | AC50 [9] [µM] | AC50 [10] [µM] | AC50 (Thromboxane A2 receptor) [µM] | AC50 [11] [µM] | AC50 (Acetylcholinesterase) [µM] |
| --- | --- | --- | --- | --- | --- | --- | --- | --- | --- | --- | --- | --- | --- | --- | --- | --- |
| CC(=O)NCCCCCC(=O)O [ACEXAMIC ACID] | > 30 | > 30 | > 30 | > 30 | 18.9 | > 30 | > 30 | > 30 | > 30 | > 30 | > 30 | > 30 | > 30 | > 30 | > 30 | > 30 |
| C=C(C)CNc1ccc(C(C)C(=O)O)cc1 (stereo not given) [ALMINOPROFEN] | > 30 | > 30 | > 30 | > 30 | > 30 | > 30 | > 30 | > 30 | > 30 | > 30 | > 30 | > 30 | > 30 | > 30 | > 30 | > 30 |
| C[C@H]1CN(C[C@H](Cc2ccccc2)C(=O)NCC(=O)O)CC[C@@]1(C)c1cccc(O)c1 [ALVIMOPAN] | > 30 | > 30 | > 30 | > 3 | > 30 | > 30 | > 30 | > 30 | > 30 | > 30 | > 30 | > 30 | > 30 | > 30 | > 30 | > 30 |
| C[N+](C)(C)CCOP(=O)(O)OP(=O)([O-])OC[C@H]1O[C@@H](n2ccc(N)nc2=O)[C@H](O)[C@@H]1O [CITICOLINE] | > 30 | > 30 | > 30 | > 30 | > 30 | > 30 | > 30 | > 30 | > 30 | > 30 | > 30 | > 30 | > 30 | > 30 | > 30 | > 30 |
| C[C@H]1O[C@@H](O[C@H]2CC[C@@]3(C)[C@H](CC[C@@H]4[C@@H]3C[C@@H](O)[C@]3(C)[C@@H](C5=CC(=O)OC5)CC[C@]43O)C2)C[C@H](O)[C@@H]1O[C@H]1C[C@H](O)[C@H](O[C@H]2C[C@H](O)[C@H](O[C@@H]3O[C@H](CO)[C@@H](O)[C@H](O)[C@H]3O)[C@@H](C)O2)[C@@H](C)O1 [DESLANOSIDE] | > 30 | > 30 | > 30 | > 30 | > 30 | > 30 | > 30 | > 30 | > 30 | > 30 | > 30 | > 30 | > 30 | > 30 | > 30 | > 30 |
| CC[C@H]1OC(=O)[C@H](C)[C@@H](O[C@H]2C[C@@](C)(OC)[C@@H](O)[C@H](C)O2)[C@H](C)[C@@H](O[C@@H]2O[C@H](C)C[C@H](N(C)C)[C@H]2O)[C@](C)(O)C[C@@H](C)[C@@H]2N[C@@H](COCCOC)O[C@H]([C@H]2C)[C@]1(C)O [DIRITHROMYCIN] | > 30 | > 30 | > 30 | > 30 | > 30 | 9.63 | > 30 | > 30 | > 30 | > 30 | > 30 | > 30 | > 30 | > 30 | > 30 | > 30 |
| O=C(O)Cc1ccccc1Oc1ccc(Cl)cc1Cl [FENCLOFENAC] | > 30 | > 30 | > 30 | > 30 | > 30 | > 30 | > 30 | > 30 | > 30 | > 30 | > 30 | > 30 | > 30 | > 30 | > 30 | > 30 |
| CC(C(=O)O)c1cccc(Oc2ccccc2)c1 (stereo not given) [FENOPROFEN] | > 30 | > 30 | > 30 | 13.5 | > 30 | 1.52 | > 30 | > 30 | > 30 | > 30 | > 30 | > 30 | > 30 | > 30 | > 30 | > 30 |
| CC1(C)O[C@@H]2C[C@H]3[C@@H]4C[C@H](F)C5=CC(=O)C=C[C@]5(C)[C@@]4(F)[C@@H](O)C[C@]3(C)[C@]2(C(=O)CO)O1 [FLUOCINOLONE ACETONIDE] | > 30 | > 30 | > 30 | > 30 | > 30 | > 30 | > 30 | > 30 | > 30 | > 30 | > 30 | > 30 | > 30 | > 30 | > 30 | > 30 |
| O=C(O)P(=O)(O)O [FOSCARNET] | > 30 | > 30 | > 30 | > 30 | > 30 | > 30 | > 30 | > 30 | > 30 | > 30 | > 30 | > 30 | > 30 | > 30 | > 30 | > 30 |
